Test results taken from US20260226417A1, “METHOD FOR INHIBITING AGING OF STEM CELLS” (ENCELL CO., LTD, priority 2023, published 2026).

Legend:
[1] = system: replicative senescence model of human umbilical cord-derived mesenchymal stem cells (P18); assay: Screening of gut microbiota-derived metabolite library for senescence control (primary HTS and secondary cell viability screening); type: cell-based
From the text: Example 2. Screening of gut microbiota-derived metabolites for senescence control of human umbilical cord-derived mesenchymal stem cells In order to determine differences in metabolite reactivity depending on the senescence status of human umbilical cord-derived mesenchymal stem cells, a library of 485 gut microbiota-derived metabolites was used to select candidates that inhibit the proliferation or cause death of replicative senescent stem cells.
Thereby, 13 candidates showing low viability only in the replicative senescence model (P18) without affecting the viability of the control cells (P5) were selected by primary screening, and the experimental group was treated with the metabolite at 25 μM, 50 μM, 100 μM, 200 μM, 300 μM, 400 μM, and 500 μM to determine the optimal concentration of the metabolite by secondary screening, analyzing the senescence control effect at a total of 7 metabolite concentrations.

[2] = system: replicative senescence-induced human umbilical cord-derived mesenchymal stem cells (P18); assay: Cell proliferation by CCK-8 assay, 6 days, replicative senescence model (P18); type: cell-based; conditions: 160 μM
Experimental: Example 4. Validation of gut microbiota-derived metabolite candidate for senescence control Control cells (P5) and replicative senescence-induced human umbilical cord-derived mesenchymal stem cells (P18) were treated with nervonic acid (160 μM) to analyze the effects of the gut microbiota-derived metabolite having the ability to control senescence of stem cells on the proliferation of stem cells and cell size.
Specifically, control cells (p5) and replicative senescence-induced human umbilical cord-derived mesenchymal stem cells (P18) were exposed to nervonic acid (160 μM) in culture medium, followed by culture for 6 days while replacing the medium every 3 days, and cell proliferation was assessed using CCK-8 assay.

[3] = system: SASP (senescence-associated secretory phenotype) markers MMP3, IGFBP5, IGFBP7; assay: qRT-PCR of SASP markers in replicative senescence model (P18); type: cell-based, human; conditions: 160 μM, 3 days
Experimental: Additionally, there is a report in which the gene expression of SASP (senescence-associated secretory phenotype) is increased in senescent cells, so the expression of MMP3, IGFBP5, and IGFBP7 was assessed at the mRNA level through qRT-PCR.
(§1) Specifically, qRT-PCR performed in this example is as follows: after treating the replicative senescence model (P18) with nervonic acid for 3 days, total RNA was extracted using Trizol (Invitrogen, MA, USA) according to the method provided by the vendor. After quantifying the extracted total RNA, random hexamer and dNTP were added, and PCR was performed at 65° C. for 5 minutes. 5× SSIV buffer, 100 mM DTT, RNAse OUT, and Superscript IV RT were added and reverse transcription was performed to synthesize cDNA, and then qRT-PCR was performed to measure gene expression, and the expression levels were compared through 2^−ΔΔCt analysis.

[4] = system: human placenta-derived mesenchymal stem cells (PL-MSCs/passage 18); assay: β-galactosidase staining, senescent PL-MSCs; type: cell-based; conditions: PL-MSCs passage 18, 3 days
From the text: Human placenta-derived mesenchymal stem cells (pl-mscs) Were Isolated From Placentas Separated according to the previously reported method of Choi et al. (PLOS ONE, (2017) 12 (2): e0172642), umbilical cord blood-derived mesenchymal stem cells (UCB-MSCs) were isolated from the umbilical cord blood separated according to the method of Kim et al. (FEBS Letters, (2010) 584:3601-3608), and adipose tissue-derived mesenchymal stem cells (AD-MSCs) were isolated from adipose tissue separated according to the previously reported method of Palumbo et al. (Int. J. Mol. Sci. (2018) 19:1987).
Each of the obtained mesenchymal stem cells was subcultured in aMEM (a-modified Minimum Essential Media) containing 10% fetal bovine serum (FBS) and 0.5% gentamicin (10 mg/ml).
The replicative senescence models of human adipose-derived mesenchymal stem cells (AD-MSCs/passage 18), human bone marrow-derived mesenchymal stem cells (BM-MSCs/passage 15), human umbilical cord blood-derived mesenchymal stem cells (UCB-MSCs/passage 16), and human placenta-derived mesenchymal stem cells (PL-MSCs/passage 18) established as described above were treated with nervonic acid for 3 days, and β-galactosidase staining was performed to observe the extent of senescence.

[5] = system: senescence markers P16 and P21; assay: qRT-PCR of senescence markers p16 and p21 at P10 after treatment at each passage; type: cell-based, human; conditions: 160 μM for 24 hours at each passage
Experimental: as §1
(§2) Example 8. Confirmation Of anti-senescence efficacy by treating various human tissue-derived mesenchymal stem cells with nervonic acid Human-derived mesenchymal stem cells were treated with nervonic acid (160 μM) at each passage during cell culture from control cells (P5) to P10 to determine whether continuous treatment with nervonic acid during cell culture at early passage numbers was able to delay cellular senescence.
Specifically, from the day after human-derived mesenchymal stem cells were subcultured, treatment with 160 μM nervonic acid or an equivalent amount of DMSO (control) for 24 hours was performed, followed by replacement with the existing culture medium the next day. The above process was repeated to perform subculture up to P10 (passage 10). […]

[6] = system: SASP markers IL-6, MMP3, IGFBP3, IGFBP5, IGFBP7; assay: qRT-PCR of SASP markers at P10 after treatment at each passage; type: cell-based, human; conditions: 160 μM for 24 hours at each passage
Experimental: as §1, §2
(§3) Specifically, from the day after human-derived mesenchymal stem cells were subcultured, treatment with 160 μM nervonic acid or an equivalent amount of DMSO (control) for 24 hours was performed, followed by replacement with the existing culture medium the next day. The above process was repeated to perform subculture up to P10 (passage 10). As such, B galactosidase staining for measuring cellular senescence was performed at P7, P8, P9, and P10, and cell doubling time and RNA extraction for qRT-PCR were both performed at P10. A more specific procedure therefor was carried out in the same manner as described above.

[7] = system: human-derived mesenchymal stem cells, control cells (P5) subcultured to P10; assay: Doubling time by CCK-8 assay at P10 after treatment at each passage; type: cell-based; conditions: 160 μM for 24 hours at each passage, at P10, CCK-8
Experimental: as §2, §3
Also, the doubling time of the control group (DMSO) and the nervonic acid treatment group was measured using CCK (cell counting kit)-8 assay.

CCCCCCCC/C=C\CCCCCCCCCCCCCC(=O)O [nervonic acid]
senescence control effect in secondary screening ([1]; 13 candidates tested at 25-500 μM (7 concentrations), P18 vs P5): greatest effect on controlling senescence | concentration exhibiting senescence control efficacy in secondary screening ([1]; secondary screening): about 200 μM | cell proliferation [2]: proliferation was significantly reduced | IGFBP5 mRNA expression, fold compared to before treatment [3]: 0.62±0.03 fold | IGFBP7 mRNA expression, fold compared to before treatment [3]: 0.77±0.03 fold | MMP3 mRNA expression, fold compared to before treatment [3]: 0.76±0.04 fold | progression of senescence (β-galactosidase staining) compared to control group (DMSO) [4]: progression of senescence was significantly inhibited | p16 mRNA expression, fold compared to control group (DMSO) [5]: 0.84±0.05 fold | p21 mRNA expression, fold compared to control group (DMSO) [5]: 0.84±0.03 fold | IGFBP3 mRNA expression, fold compared to control group (DMSO) [6]: 0.77±0.03 fold | IGFBP5 mRNA expression, fold compared to control group (DMSO) [6]: 0.80±0.03 fold | IGFBP7 mRNA expression, fold compared to control group (DMSO) [6]: 0.91±0.03 fold | IL-6 mRNA expression, fold compared to control group (DMSO) [6]: 0.77±0.03 fold | MMP3 mRNA expression, fold compared to control group (DMSO) [6]: 0.65±0.07 fold | doubling time [7]: 24.7 h
